How the values were obtained:
[1] = tested on: small flower umbrella sedge; test: Test B flooded paddy test; type: in vivo, Cyperus difformis; settings: 1000 g ai/ha, scale 0 to 100 (0 no effect, 100 complete control)
In short: (§1)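 Visual control ratings, 0–100 versus untreated controls, taken after 13 to 15 days in the greenhouse. Blackgrass received a postemergence spray at the 1- to 4-leaf stage (2–18 cm); ducksalad, umbrella sedge and barnyardgrass were flooded-paddy treated at 2 leaves.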

wild oat = test: Test B postemergence herbicide test; type: in vivo, Avena fatua; settings: postemergence
In short: (§2)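 After treating 2-leaf paddy plants or 2–18 cm postemergence plants (1 to 4 leaves) with formulated chemical, researchers kept them in a greenhouse for 13–15 days. Effects were judged visually versus controls: 0 indicates none, 100 total control.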

large crabgrass = test: Test B pre-/postemergence herbicide test; type: in vivo, Digitaria sanguinalis; settings: for Crabgrass, Large plant response rating: postemergence
In short: (§3)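 Greenhouse pot assay with simultaneous preemergence (treated seed) and postemergence (2–18 cm seedlings) applications of surfactant-containing, non-phytotoxic solvent formulations. Response scored visually 13–15 days later on a 0–100 scale, 100 meaning complete control.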

giant foxtail = test: Test B pre-/postemergence herbicide test; type: in vivo, Setaria faberi; settings: for Foxtail, Giant plant response rating: postemergence
In short: as §3

barnyardgrass = test: Test B pre-/postemergence herbicide test; type: in vivo, Echinochloa crus-galli; settings: for Barnyardgrass plant response rating: postemergence
In short: (§4)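 Response was scored visually 13 to 15 days after treatment against untreated greenhouse controls, 0 meaning no effect and 100 complete control. Formulations (solvent mixture plus surfactant) went onto soil after planting, onto foliage of 1- to 4-leaf plants, and onto 2-leaf plants in a flooded paddy set including rice and barnyardgrass.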

Surinam grass = test: Test B pre-/postemergence herbicide test; type: in vivo, Urochloa decumbens; settings: for Surinam Grass plant response rating: postemergence
In short: as §3

rice = test: Test B flooded paddy test; type: in vivo, Oryza sativa; settings: 1000 g ai/ha, scale 0 to 100 (0 no effect, 100 complete control)
In short: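 Greenhouse test; postemergence application to plants at 1–4 leaves (2–18 cm); paddy species at 2 leaves; evaluated visually vs controls at 13–15 days; scale 0–100 (100 = complete control).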

ducksalad = test: Test B flooded paddy test; type: in vivo, Heteranthera limosa; settings: 1000 g ai/ha, scale 0 to 100 (0 no effect, 100 complete control)
In short: as §1

velvetleaf = test: Test B pre-/postemergence herbicide test; type: in vivo, Abutilon theophrasti; settings: for Velvetleaf plant response rating: postemergence
In short: as §3

lambsquarters = test: Test B pre-/postemergence herbicide test; type: in vivo, Chenopodium album; settings: for Lambsquarters plant response rating: postemergence
In short: as §3

wheat = test: Test B postemergence herbicide test; type: in vivo, Triticum aestivum; set-up: key to Wheat plant response rating: 0 = no effect, 100 = complete control; settings: postemergence
In short: as §2

corn = test: Test B pre-/postemergence herbicide test; type: in vivo, Zea mays; settings: postemergence
In short: as §3

cocklebur = test: Test B pre-/postemergence herbicide test; type: in vivo, Xanthium strumarium; settings: for Cocklebur plant response rating: postemergence
In short: as §4

blackgrass = test: Test B postemergence herbicide test; type: in vivo, Alopecurus myosuroides; settings: postemergence
In short: as §1

pigweed = test: Test B pre-/postemergence herbicide test; type: in vivo, Amaranthus retroflexus; settings: for Pigweed plant response rating: postemergence
In short: as §3

[2] = 125 g ai/ha, visual rating, scale 0 (no effect) to 100 (complete control)
[3] = 500 g ai/ha, scale 0 to 100, 0 is no effect, 100 is complete control
[4] = 125 g ai/ha, 0 is no effect, 100 is complete control, preemergence
[5] = 500 g ai/ha, visual rating, 0 = no effect, 100 = complete control, preemergence

CCC1=NN(C(C)(C)C)CC1C(=O)Nc1cc(C(=O)N2CCCC2)ccc1F (racemic) [Compound 341]
Sedge, Umbrella plant response rating [1]: 80 | Oat, Wild plant response rating (wild oat; [2]): 0 | Oat, Wild plant response rating (wild oat; [3]): 30 | Plant response rating (0 to 100 scale), Crabgrass, Large (large crabgrass; [4]): 90 | Crabgrass, Large plant response rating (large crabgrass; [2]): 10 | Plant response rating, Crabgrass, Large (large crabgrass; [5]): 100 | Crabgrass, Large plant response rating (large crabgrass; [3]): 20 | Plant response rating (0 to 100 scale), Foxtail, Giant (giant foxtail; [4]): 50 | Foxtail, Giant plant response rating (giant foxtail; [2]): 30 | Plant response rating, Foxtail, Giant (giant foxtail; [5]): 90 | Foxtail, Giant plant response rating (giant foxtail; [3]): 30 | Plant response rating (0 to 100 scale), Barnyardgrass (barnyardgrass; [4]): 80 | Barnyardgrass plant response rating (barnyardgrass; [2]): 10 | Plant response rating, Barnyardgrass (barnyardgrass; [5]): 100 | Barnyardgrass plant response rating (barnyardgrass; [3]): 20 | Plant response rating (0 to 100 scale), Surinam Grass (Surinam grass; [4]): 100 | Surinam Grass plant response rating (Surinam grass; [2]): 10 | Plant response rating, Surinam Grass (Surinam grass; [5]): 100 | Surinam Grass plant response rating (Surinam grass; [3]): 20 | Rice plant response rating (rice): 70 | Ducksalad plant response rating (ducksalad): 90 | Plant response rating (0 to 100 scale), Velvetleaf (velvetleaf; [4]): 60 | Velvetleaf plant response rating (velvetleaf; [2]): 20 | Velvetleaf plant response rating (velvetleaf; [3]): 30 | Plant response rating (0 to 100 scale), Lambsquarters (lambsquarters; [4]): 100 | Lambsquarters plant response rating (lambsquarters; [2]): 30 | Plant response rating, Lambsquarters (lambsquarters; [5]): 100 | Lambsquarters plant response rating (lambsquarters; [3]): 100 | Wheat plant response rating (wheat; [2]): 10 | Wheat plant response rating (wheat; [3]): 20 | Corn plant response rating (corn; [2]): 0 | Corn plant response rating (corn; [3]): 10 | Plant response rating (0 to 100 scale), Cocklebur (cocklebur; [4]): 40 | Cocklebur plant response rating (cocklebur; [2]): 10 | Plant response rating, Cocklebur (cocklebur; [5]): 100 | Cocklebur plant response rating (cocklebur; [3]): 20 | Blackgrass plant response rating (blackgrass; [2]): 10 | Blackgrass plant response rating (blackgrass; [3]): 20 | Plant response rating (0 to 100 scale), Pigweed (pigweed; [4]): 90 | Pigweed plant response rating (pigweed; [2]): 30 | Plant response rating, Pigweed (pigweed; [5]): 100 | Pigweed plant response rating (pigweed; [3]): 60

Reference: patent US20060069132A1, “Azolecarboxamide herbicides” (priority 2004, published 2006)
